Each block holds one compound with its values, some of them ahead of it.
How the values were obtained:
RORγ-LBD = target: T1, RORγ-LBD (Homo sapiens, UniProt P51449); assay: RORγ-Ligand Binding Domain (LBD) TR-FRET Assay; assay type: biochemical; details: for TR-FRET Assay Max Response: maximum response;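 for TR-FRET Assay Max Response: 665/615 nm signal ratio set to 100 without ursolic acid or test compound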
T1 construct: made in house; host or cells: SF9 cells (baculovirus); used as diluted lysate
T1 sequence (P51449 269-508 limits assumed): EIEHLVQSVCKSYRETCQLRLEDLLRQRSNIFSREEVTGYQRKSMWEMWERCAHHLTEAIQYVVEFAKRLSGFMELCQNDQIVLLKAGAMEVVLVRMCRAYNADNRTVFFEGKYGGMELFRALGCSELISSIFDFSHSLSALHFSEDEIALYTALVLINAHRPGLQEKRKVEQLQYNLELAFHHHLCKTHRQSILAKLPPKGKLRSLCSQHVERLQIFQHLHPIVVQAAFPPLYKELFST
Method in brief: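 Compounds, diluted in DMSO and then in assay buffer (1% DMSO final), were combined with His-tagged RORγ-LBD lysate at roughly 3 nM final and a 200 nM biotinylated SRC1 LXXLL peptide. Ursolic acid was included at 2 μM final. Coactivator recruitment was detected by TR-FRET.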

Gal4-RORγ-LBD = target: T2, Gal4-RORγ-LBD (Homo sapiens, UniProt P51449); assay: Gal4-RORγ Luciferase Reporter Assay in HEK-293T Cells; assay type: cell-based; details: HEK-293 cells; for Gal4-RORγ Assay Max Response: maximum response
T2 construct: expressed in transfected cells
T2 sequence (P51449 269-508 limits assumed): T1 sequence (P51449 269-508 limits assumed)
Method in brief: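 Max Response was taken as the upper plateau of a 4-parameter logistic fit of luciferase signal, normalized to 100 for wells without ursolic acid or compound. Transiently Gal4-RORγ-LBD/Gal4-luc transfected HEK-293 cells carrying […] ursolic acid were incubated with test compounds (0.2% DMSO) overnight at 37 °C and read with One-Glo.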

[1] = luciferase reporter, in presence of ursolic acid
[2] = luciferase reporter, with ursolic acid
[3] = with 2 μM ursolic acid (RORγ antagonist), highest test concentration 10 μM
[4] = ursolic acid present, luciferase readout

Compound: CCn1cc(S(=O)(=O)N2C[C@H]([C@@H](C)N)Oc3ccc(/C=C(\C)c4c(F)cccc4Cl)cc32)c(Cl)n1 [Example 101, (R)-1-((R)-4-((3-Chloro-1-ethyl-1H-pyrazol-4-yl)sulfonyl)-6-((E)-2-(2-chloro-6-fluorophenyl)prop-1-en-1-yl)-3,4-dihydro-2H-benzo[b][1,4]oxazin-2-yl)ethan-1-amine]
EC50 (RORγ-LBD; RORγ-LBD TR-FRET): < 0.5 µM | EC50 (Gal4-RORγ-LBD; [2]): > 10 µM

Compound: C/C(=C\c1ccc2c(c1)C(S(=O)(=O)c1cccc(C(F)(F)F)c1)CC(CNC(=O)C(C)(C)O)O2)c1c(F)cccc1Cl (centres unmarked) [Example 182, (E)-N-((6-(2-(2-Chloro-6-fluorophenyl)prop-1-en-1-yl)-4-((3-(trifluoromethyl)phenyl)sulfonyl)chroman-2-yl)methyl)-2-hydroxy-2-methylpropanamide]
EC50 (RORγ-LBD; RORγ-LBD TR-FRET assay): < 0.5 µM | TR-FRET Assay Max Response (RORγ-LBD; RORγ-LBD TR-FRET assay): *** (a value in the range of greater than 150 to 200) | EC50 (Gal4-RORγ-LBD; [1]): < 0.5 µM | Gal4-RORγ Assay Max Response (Gal4-RORγ-LBD; [1]): ** (a value in the range of greater than 90 to 150)

Compound: COc1cc(S(=O)(=O)N2CCCc3ccc(OC4CCCc5ccccc54)cc32)ccc1F (centres unmarked) [Example 25C, 1-((4-fluoro-3-methoxyphenyl)sulfonyl)-7-((1,2,3,4-tetrahydronaphthalen-1-yl)oxy)-1,2,3,4-tetrahydroquinoline]
EC50 (RORγ-LBD; RORγ-LBD TR-FRET): < 0.5 µM | EC50 (Gal4-RORγ-LBD; [2]): < 0.5 µM

Compound: COC(=O)CC[C@H]1CN(S(=O)(=O)c2cccc(C(F)(F)F)c2)c2cc(/C=C(\C)c3c(F)cccc3Cl)cc(F)c2O1 [Example 49, (S,E)-Methyl 3-(6-(2-(2-chloro-6-fluorophenyl)prop-1-en-1-yl)-8-fluoro-4-((3-(trifluoromethyl)phenyl)sulfonyl)-3,4-dihydro-2H-benzo[b][1,4]oxazin-2-yl)propanoate]
EC50 (RORγ-LBD; RORγ-LBD TR-FRET): < 0.5 µM | EC50 (Gal4-RORγ-LBD; [2]): 0.5 to 5 µM

Compound: COC(=O)CC[C@H]1CN(S(=O)(=O)c2cccc(C(F)(F)F)c2)c2cc(/C=C(\C)c3ccccc3C)ccc2O1 [Example 86AL, (S,E)-methyl 3-(6-(2-(o-tolyl)prop-1-en-1-yl)-4-((3-(trifluoromethyl)-phenyl)sulfonyl)-3,4-dihydro-2H-benzo[b][1,4]oxazin-2-yl)propanoate]
EC50 (RORγ-LBD; RORγ-LBD TR-FRET): < 0.5 µM | EC50 (Gal4-RORγ-LBD; [2]): 0.5 to 5 µM

Compound: O=S(=O)(c1cccc(C(F)(F)F)c1)N1C[C@H](O)Cc2ccc(OCc3c(F)cccc3Cl)cc21 [Example 155, (R)-7-((2-Chloro-6-fluorobenzyl)oxy)-1-((3-(trifluoromethyl)phenyl)sulfonyl)-1,2,3,4-tetrahydroquinolin-3-ol]
EC50 (RORγ-LBD; RORγ-LBD TR-FRET assay): < 0.5 µM | TR-FRET Assay Max Response (RORγ-LBD; RORγ-LBD TR-FRET assay): ** (a value in the range of greater than 90 to 150) | EC50 (Gal4-RORγ-LBD; [1]): < 0.5 µM | Gal4-RORγ Assay Max Response (Gal4-RORγ-LBD; [1]): ** (a value in the range of greater than 90 to 150)

Compound: CCOc1ncc(C(F)(F)F)cc1S(=O)(=O)N1C[C@H](CCC(=O)OC)Oc2ccc(/C=C(\C)c3c(F)cccc3Cl)cc21 [Example 33, (S,E)-Methyl 3-(6-(2-(2-chloro-6-fluorophenyl)prop-1-en-1-yl)-4-((2-ethoxy-5-(trifluoromethyl)pyridin-3-yl)sulfonyl)-3,4-dihydro-2H-benzo[b][1,4]oxazin-2-yl)propanoate]
EC50 (RORγ-LBD; RORγ-LBD TR-FRET): < 0.5 µM | EC50 (Gal4-RORγ-LBD; [2]): 0.5 to 5 µM

Continued, in another order:

EC50 (RORγ-LBD; RORγ-LBD TR-FRET assay): < 0.5 µM | TR-FRET Assay Max Response (RORγ-LBD; RORγ-LBD TR-FRET assay): **** (a value greater than 200) | EC50 (Gal4-RORγ-LBD; [1]): < 0.5 µM
Compound: C/C(=C\c1ccc2c(c1)N(S(=O)(=O)c1cccc(C(F)(F)F)c1)C[C@H](CCC(=O)N1CC3(COC3)C1)O2)c1c(F)cccc1Cl [Example 127D, (S,E)-3-(6-(2-(2-chloro-6-fluorophenyl)prop-1-en-1-yl)-4-((3-(trifluoro-methyl)phenyl)sulfonyl)-3,4-dihydro-2H-benzo[b][1,4]oxazin-2-yl)-1-(2-oxa-6-azaspiro[3.3]heptan-6-yl)propan-1-one]
Gal4-RORγ Assay Max Response (Gal4-RORγ-LBD; [1]): ** (a value in the range of greater than 90 to 150)

EC50 (RORγ-LBD; RORγ-LBD TR-FRET): < 0.5 µM | EC50 (Gal4-RORγ-LBD; [2]): > 10 µM
Compound: CCOc1nn(CC)cc1S(=O)(=O)N1C[C@H](CCC(=O)O)Oc2ccc(/C=C/c3ccccc3C)cc21 [Example 89AS, (S,E)-3-(4-((3-ethoxy-1-ethyl-1H-pyrazol-4-yl)sulfonyl)-6-(2-methylstyryl)-3,4-dihydro-2H-benzo[b][1,4]oxazin-2-yl)propanoic acid]

EC50 (RORγ-LBD; RORγ-LBD TR-FRET assay): < 0.5 µM | EC50 (Gal4-RORγ-LBD; [1]): < 0.5 µM | Gal4-RORγ Assay Max Response (Gal4-RORγ-LBD; [1]): * (a value in the range of 30 to 90)
Compound: COC(=O)CCC1CC(S(=O)(=O)c2ccc(F)c(OC)c2)c2cc(/C=C(\C)c3c(F)cccc3Cl)ccc2O1 (centres unmarked) [Example 186F, methyl (E)-3-(6-(2-(2-chloro-6-fluorophenyl)prop-1-en-1-yl)-4-((4-fluoro-3-methoxyphenyl)sulfonyl)chroman-2-yl)propanoate]
TR-FRET Assay Max Response (RORγ-LBD; RORγ-LBD TR-FRET assay): *** (a value in the range of greater than 150 to 200)

EC50 (RORγ-LBD; RORγ-LBD TR-FRET): < 0.5 µM | EC50 (Gal4-RORγ-LBD; [2]): 0.5 to 5 µM
Compound: CCOc1ncc(C(F)(F)F)cc1S(=O)(=O)N1C[C@H](CCC(=O)OC)Oc2ccc(/C=C/c3c(Cl)cccc3C(F)F)cc21 [Example 89EK, methyl (S,E)-3-(6-(2-chloro-6-(difluoromethyl)styryl)-4-((2-ethoxy-5-(trifluoromethyl)-pyridin-3-yl)sulfonyl)-3,4-dihydro-2H-benzo[b][1,4]-oxazin-2-yl)propanoate]

EC50 (RORγ-LBD; [3]): < 0.5 µM | EC50 (Gal4-RORγ-LBD; [4]): 0.5 to 5 µM
Compound: COC(=O)CCC[C@H]1CN(S(=O)(=O)c2cccc(C(F)(F)F)c2)c2cc(/C=C/c3c(F)cccc3Cl)ccc2O1 [Example 195E, methyl (S,E)-4-(6-(2-chloro-6-fluorostyryl)-4-((3-(trifluoro-methyl)phenyl)sulfonyl)-3,4-dihydro-2H-benzo[b][1,4]oxazin-2-yl)butanoate]

EC50 (RORγ-LBD; RORγ-LBD TR-FRET): < 0.5 µM | EC50 (Gal4-RORγ-LBD; [2]): > 10 µM
Compound: CC(C)Oc1ncc(C(F)(F)F)cc1S(=O)(=O)N1C[C@H](CCC(=O)O)Oc2ccc(/C=C/c3c(F)cccc3Cl)cc21 [Example 89FK, (S,E)-3-(6-(2-chloro-6-fluorostyryl)-4-((2-isopropoxy-5-(trifluoromethyl)pyridin-3-yl)sulfonyl)-3,4-dihydro-2H-benzo[b][1,4]oxazin-2-yl)propanoic acid]

EC50 (RORγ-LBD; [3]): < 0.5 µM | EC50 (Gal4-RORγ-LBD; [4]): 0.5 to 5 µM
Compound: CC/C(=C\c1ccc2c(c1)N(S(=O)(=O)c1cc(C(F)(F)F)cnc1OCCO)C[C@H](CCC(=O)OC)O2)C(C)C [Example 191F, methyl (S,E)-3-(6-(2-ethyl-3-methylbut-1-en-1-yl)-4-((2-(2-hydroxyethoxy)-5-(trifluoro-methyl)pyridin-3-yl)sulfonyl)-3,4-dihydro-2H-benzo[b][1,4]oxazin-2-yl)propanoate]

EC50 (RORγ-LBD; RORγ-LBD TR-FRET): < 0.5 µM | EC50 (Gal4-RORγ-LBD; [2]): < 0.5 µM
Compound: CCOc1ncc(C(F)(F)F)cc1S(=O)(=O)N1C[C@H](CCC(=O)O)Oc2ccc(/C=C/c3c(Cl)cccc3C(C)(F)F)cc21 [Example 89FG, (S,E)-3-(6-(2-chloro-6-(1,1-difluoroethyl)styryl)-4-((2-ethoxy-5-(trifluoromethyl)-pyridin-3-yl)sulfonyl)-3,4-dihydro-2H-benzo[b][1,4]-oxazin-2-yl)propanoic acid]

EC50 (RORγ-LBD; RORγ-LBD TR-FRET): < 0.5 µM | EC50 (Gal4-RORγ-LBD; [2]): < 0.5 µM
Compound: COC(=O)CC[C@H]1CN(S(=O)(=O)c2cc(C(F)(F)F)cnc2OCCO)c2cc(/C=C/c3c(F)cccc3Cl)ccc2O1 [Example 89EB, methyl (S,E)-3-(6-(2-chloro-6-fluorostyryl)-4-((2-(2-hydroxyethoxy)-5-(trifluoromethyl)-pyridin-3-yl)sulfonyl)-3,4-dihydro-2H-benzo[b][1,4]oxazin-2-yl)propanoate]

EC50 (RORγ-LBD; [3]): < 0.5 µM | EC50 (Gal4-RORγ-LBD; [4]): < 0.5 µM
Compound: O=C(O)CCC[C@H]1CN(S(=O)(=O)c2cc(C(F)(F)F)cnc2OCCO)c2cc(/C=C/c3c(F)cccc3Cl)ccc2O1 [Example 195B, (S,E)-4-(6-(2-chloro-6-fluorostyryl)-4-((2-(2-hydroxyethoxy)-5-(trifluoro-methyl)pyridin-3-yl)sulfonyl)-3,4-dihydro-2H-benzo[b][1,4]-oxazin-2-yl)butanoic acid]

EC50 (RORγ-LBD; RORγ-LBD TR-FRET): < 0.5 µM | EC50 (Gal4-RORγ-LBD; [2]): 0.5 to 5 µM
Compound: CCOc1nn(CC)cc1S(=O)(=O)N1C[C@H](CCC(=O)OC)Oc2ccc(/C=C/c3ccsc3)cc21 [Example 89L, (S,E)-methyl 3-(4-((3-ethoxy-1-ethyl-1H-pyrazol-4-yl)sulfonyl)-6-(2-(thiophen-3-yl)vinyl)-3,4-dihydro-2H-benzo[b][1,4]oxazin-2-yl)propanoate]

EC50 (RORγ-LBD; RORγ-LBD TR-FRET assay): < 0.5 µM | EC50 (Gal4-RORγ-LBD; [1]): < 0.5 µM
Compound: CC(O[C@@H]1Cc2ccc(OCc3c(F)cccc3Cl)cc2N(S(=O)(=O)c2cccc(C(F)(F)F)c2)C1)C(=O)O (stereo partly drawn) [Example 173C, 2-(((R)-7-((2-chloro-6-fluorobenzyl)oxy)-1-((3-(trifluoromethyl)phenyl)sulfonyl)-1,2,3,4-tetrahydroquinolin-3-yl)oxy)propanoic acid]
TR-FRET Assay Max Response (RORγ-LBD; RORγ-LBD TR-FRET assay): ** (a value in the range of greater than 90 to 150) | Gal4-RORγ Assay Max Response (Gal4-RORγ-LBD; [1]): ** (a value in the range of greater than 90 to 150)

EC50 (RORγ-LBD; RORγ-LBD TR-FRET): < 0.5 µM | EC50 (Gal4-RORγ-LBD; [2]): < 0.5 µM
Compound: CCn1cc(S(=O)(=O)N2C[C@H](CCC(=O)O)Oc3ccc(/C=C/c4c(Cl)cccc4C(F)(F)F)cc32)c(OCCO)n1 [Example 89EA, (S,E)-3-(6-(2-chloro-6-(trifluoromethyl)styryl)-4-((1-ethyl-3-(2-hydroxyethoxy)-1H-pyrazol-4-yl)sulfonyl)-3,4-dihydro-2H-benzo[b][1,4]oxazin-2-yl)propanoic acid]
